{
  "source": "ChEMBL document CHEMBL1201862",
  "about": "“PubChem BioAssay data set” (2004)",
  "assay_in_all_cases": "growth of human tumour cells (NCI), 48 h",
  "key": {"IGROV-1": {"system": "IGROV-1"}, "NCI/ADR-RES": {"system": "NCI/ADR-RES"}, "UACC-257": {"system": "UACC-257"}, "K562": {"system": "K562"}, "NCI-H522": {"system": "NCI-H522"}, "OVCAR-5": {"system": "OVCAR-5"}, "RXF 393": {"system": "RXF 393"}, "OVCAR-3": {"system": "OVCAR-3"}, "ACHN": {"system": "ACHN"}, "SF-539": {"system": "SF-539"}, "SK-MEL-28": {"system": "SK-MEL-28"}, "HOP-92": {"system": "HOP-92"}, "Malme-3M": {"system": "Malme-3M"}, "SNB-19": {"system": "SNB-19"}, "HCT-15": {"system": "HCT-15"}, "HCC 2998": {"system": "HCC 2998"}, "SK-OV-3": {"system": "SK-OV-3"}, "SN12C": {"system": "SN12C"}, "KM12": {"system": "KM12"}, "SNB-75": {"system": "SNB-75"}},
  "note": "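How tested: cells in 96-well plates exposed to compound for 48 hours at five concentrations. GI50: concentration for 50% inhibition of growth.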 The source made the active and inactive calls. Rule as the data show it: active = GI50 up to about 1.1 µM and inactive = higher. Where a SMILES comes first, the peptide text is derived from it. The star is where a group is joined. Boc = CC(C)(C)OC(=O)*; nBu = CCCC*",
  "data": [
    {"smiles": "CC(C)(C)OC(=O)N1CCCC1C(=O)NC(c1ccccc1)c1ccccc1", "note": "(stereo not given)", "values": [
      {"measurement": "GI50", "setting": "IGROV-1", "result": "> 100 µM (inactive)"},
      {"measurement": "GI50", "setting": "NCI/ADR-RES", "result": "> 100 µM (inactive)"},
      {"measurement": "GI50", "setting": "UACC-257", "result": "> 100 µM (inactive)"},
      {"measurement": "GI50", "setting": "K562", "result": "> 100 µM (inactive)"},
      {"measurement": "GI50", "setting": "NCI-H522", "result": "> 100 µM (inactive)"},
      {"measurement": "GI50", "setting": "OVCAR-5", "result": "> 100 µM (inactive)"},
      {"measurement": "GI50", "setting": "RXF 393", "result": "> 100 µM (inactive)"},
      {"measurement": "GI50", "setting": "OVCAR-3", "result": "> 100 µM (inactive)"},
      {"measurement": "GI50", "setting": "ACHN", "result": "> 100 µM (inactive)"},
      {"measurement": "GI50", "setting": "SF-539", "result": "> 100 µM (inactive)"},
      {"measurement": "GI50", "setting": "SK-MEL-28", "result": "> 100 µM (inactive)"},
      {"measurement": "GI50", "setting": "HOP-92", "result": "> 100 µM (inactive)"},
      {"measurement": "GI50", "setting": "Malme-3M", "result": "> 100 µM (inactive)"},
      {"measurement": "GI50", "setting": "SNB-19", "result": "> 100 µM (inactive)"},
      {"measurement": "GI50", "setting": "HCT-15", "result": "> 100", "unit": "µM"},
      {"measurement": "GI50", "setting": "HCC 2998", "result": "> 100 µM (inactive)"},
      {"measurement": "GI50", "setting": "SK-OV-3", "result": "> 100 µM (inactive)"},
      {"measurement": "GI50", "setting": "SN12C", "result": "> 100 µM (inactive)"},
      {"measurement": "GI50", "setting": "KM12", "result": "> 100 µM (inactive)"},
      {"measurement": "GI50", "setting": "SNB-75", "result": "> 100 µM (inactive)"}
    ]},
    {"smiles": "Cc1ccc2[nH]c3c(C)c4cc[n+](C)cc4c(C)c3c2c1", "values": [
      {"measurement": "GI50", "setting": "IGROV-1", "result": "1.19 µM (inactive)"},
      {"measurement": "GI50", "setting": "NCI/ADR-RES", "result": "7.93 µM (inactive)"},
      {"measurement": "GI50", "setting": "UACC-257", "result": "3.71 µM (inactive)"},
      {"measurement": "GI50", "setting": "K562", "result": "1.41 µM (inactive)"},
      {"measurement": "GI50", "setting": "NCI-H522", "result": "1.03 µM (active)"},
      {"measurement": "GI50", "setting": "OVCAR-5", "result": "5 µM (inactive)"},
      {"measurement": "GI50", "setting": "RXF 393", "result": "1.42 µM (inactive)"},
      {"measurement": "GI50", "setting": "OVCAR-3", "result": "2.84 µM (inactive)"},
      {"measurement": "GI50", "setting": "ACHN", "result": "4.92 µM (inactive)"},
      {"measurement": "GI50", "setting": "SF-539", "result": "0.849 µM (active)"},
      {"measurement": "GI50", "setting": "SK-MEL-28", "result": "2.12 µM (inactive)"},
      {"measurement": "GI50", "setting": "HOP-92", "result": "4.32 µM (inactive)"},
      {"measurement": "GI50", "setting": "Malme-3M", "result": "1.38 µM (inactive)"},
      {"measurement": "GI50", "setting": "SNB-19", "result": "0.499 µM (active)"},
      {"measurement": "GI50", "setting": "HCT-15", "result": 14.1, "unit": "µM"},
      {"measurement": "GI50", "setting": "HCC 2998", "result": "2.06 µM (inactive)"},
      {"measurement": "GI50", "setting": "SK-OV-3", "result": "2.51 µM (inactive)"},
      {"measurement": "GI50", "setting": "SN12C", "result": "0.271 µM (active)"},
      {"measurement": "GI50", "setting": "KM12", "result": "0.67 µM (active)"},
      {"measurement": "GI50", "setting": "SNB-75", "result": "0.251 µM (active)"}
    ]},
    {"smiles": "CCCCOc1ccc(CC(NC(=O)OC(C)(C)C)C(=O)NC(C)C(=O)NC(Cc2ccccc2)C(=O)NCC(N)=O)cc1", "note": "(stereo not given) (Boc-Y(nBu)AFG-NH2; configuration not given here)", "values": [
      {"measurement": "GI50", "setting": "IGROV-1", "result": "31.3 µM (inactive)"},
      {"measurement": "GI50", "setting": "NCI/ADR-RES", "result": "> 100 µM (inactive)"},
      {"measurement": "GI50", "setting": "UACC-257", "result": "> 100 µM (inactive)"},
      {"measurement": "GI50", "setting": "K562", "result": "> 100 µM (inactive)"},
      {"measurement": "GI50", "setting": "NCI-H522", "result": "66.5 µM (inactive)"},
      {"measurement": "GI50", "setting": "OVCAR-5", "result": "> 100 µM (inactive)"},
      {"measurement": "GI50", "setting": "RXF 393", "result": "> 100 µM (inactive)"},
      {"measurement": "GI50", "setting": "OVCAR-3", "result": "> 100 µM (inactive)"},
      {"measurement": "GI50", "setting": "ACHN", "result": "> 100 µM (inactive)"},
      {"measurement": "GI50", "setting": "SF-539", "result": "> 100 µM (inactive)"},
      {"measurement": "GI50", "setting": "SK-MEL-28", "result": "91 µM (inactive)"},
      {"measurement": "GI50", "setting": "HOP-92", "result": "61.4 µM (inactive)"},
      {"measurement": "GI50", "setting": "Malme-3M", "result": "> 100 µM (inactive)"},
      {"measurement": "GI50", "setting": "SNB-19", "result": "> 100 µM (inactive)"},
      {"measurement": "GI50", "setting": "HCT-15", "result": "> 100", "unit": "µM"},
      {"measurement": "GI50", "setting": "HCC 2998", "result": "> 100 µM (inactive)"},
      {"measurement": "GI50", "setting": "SK-OV-3", "result": "> 100 µM (inactive)"},
      {"measurement": "GI50", "setting": "SN12C", "result": "> 100 µM (inactive)"},
      {"measurement": "GI50", "setting": "KM12", "result": "> 100 µM (inactive)"},
      {"measurement": "GI50", "setting": "SNB-75", "result": "> 100 µM (inactive)"}
    ]}
  ]
}
